Results on 26 molecules are retold here after patent publication US20110098288A1, “SULFONAMIDES AS ZAP-70 INHIBITORS” (priority 2008, published 2011).

The test system of one experiment is Jurkat cells. In words: Calcium release assay (Fluo-4 flow cytometry after anti-CD3 stimulation). It counts as cell-based. The conditions noted are these: Homo sapiens, Jurkat cell line J77, anti-CD3 activation, read-out: IC50 (Calcium ion release in cells). In outline:
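Jurkat J77 cells loaded with Fluo-4/Pluronic F-127 for 30 min at 37 °C, then incubated with compound at room temperature in the dark in PBS–CaCl2 with 10% FCS. Stimulation with anti-CD3 (0.2 μg/ml final) plus GAM (0.75 μg/ml final) at 37 °C, then flow-cytometric Ca2+ fluorescence acquired for 200 s.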

The target in a further experiment is T1, ZAP-70 (Homo sapiens, UniProt P43403).
T1 construct: endogenous in cells; host or cells: cell lysate
T1 sequence (P43403 1-619): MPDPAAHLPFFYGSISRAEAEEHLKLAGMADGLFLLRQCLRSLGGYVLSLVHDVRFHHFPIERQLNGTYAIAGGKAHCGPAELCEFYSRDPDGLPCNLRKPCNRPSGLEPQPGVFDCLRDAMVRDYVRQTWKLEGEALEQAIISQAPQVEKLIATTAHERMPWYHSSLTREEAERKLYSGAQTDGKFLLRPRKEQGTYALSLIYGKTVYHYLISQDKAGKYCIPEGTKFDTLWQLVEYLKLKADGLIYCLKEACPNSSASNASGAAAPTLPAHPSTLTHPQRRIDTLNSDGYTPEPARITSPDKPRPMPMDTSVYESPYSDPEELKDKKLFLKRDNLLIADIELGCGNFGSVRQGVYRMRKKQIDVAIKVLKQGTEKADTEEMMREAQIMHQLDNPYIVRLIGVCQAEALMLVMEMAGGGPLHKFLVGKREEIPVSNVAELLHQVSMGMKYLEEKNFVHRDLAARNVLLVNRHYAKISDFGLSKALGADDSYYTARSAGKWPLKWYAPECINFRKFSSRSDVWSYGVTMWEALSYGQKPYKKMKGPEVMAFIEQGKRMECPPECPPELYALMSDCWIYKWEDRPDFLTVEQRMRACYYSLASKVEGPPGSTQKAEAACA
In words: ZAP-70 kinobeads assay. It counts as binding. To be noted: competition with immobilized aminopyrido-pyrimidine ligand 24 in cell lysate; ZAP-70 detected by dot blot. In outline: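 Cell lysate aliquots incubated with test compounds at various concentrations plus affinity beads carrying immobilized aminopyrido-pyrimidine ligand 24. Bead-captured proteins eluted; ZAP-70 quantified by specific antibody dot blot with infrared detection.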

Structures can show the parent of a compound that is named as a salt.

`COc1ccc(Nc2nc(Nc3cc(OC)c(OC)c(OC)c3)ncc2Br)c(NS(C)(=O)=O)c1` [Example 178, N-(2-(5-bromo-2-(3,4,5-trimethoxyphenylamino)pyrimidin-4-ylamino)-5-methoxyphenyl)methanesulfonamide]: the concentration for half-maximal inhibition (IC50) (usually the concentration at which inhibition is half-maximal) in the experiment with Jurkat cells is 100 to 1000 nM; at ZAP-70, < 100 nM.

For `CS(=O)(=O)Nc1ccccc1Nc1nc(Nc2cccc(OCCN3CCOCC3)c2)ncc1F` [Example 77, N-(2-(5-fluoro-2-(3-(2-morpholinoethoxy)phenylamino)pyrimidin-4-ylamino)phenyl)methanesulfonamide], the half-maximal inhibitory concentration (IC50) in the experiment with Jurkat cells and on ZAP-70 was 100 to 1000 nM in each case.

As for `COc1ccc(Nc2ncc(F)c(Nc3ccccc3NS(C)(=O)=O)n2)cc1` [Example 35, N-(2-(5-fluoro-2-(4-methoxyphenylamino)pyrimidin-4-ylamino)phenyl)methanesulfonamide], the half-inhibitory concentration (IC50) in the experiment with Jurkat cells and on ZAP-70 was 100 to 1000 nM throughout.

With `COc1cc(Nc2ncc(Br)c(Nc3ccccc3NS(C)(=O)=O)n2)ccc1C` [Example 104, N-(2-(5-bromo-2-(3-methoxy-4-methylphenylamino)pyrimidin-4-ylamino)phenyl)methanesulfonamide], the IC50 in the experiment with Jurkat cells and at ZAP-70 was 100 to 1000 nM each time.

Turning to `COc1cc(Nc2ncc(F)c(Nc3ccccc3NS(=O)(=O)c3ccsc3)n2)cc(OC)c1OC` [Example 49, N-(2-(5-fluoro-2-(3,4,5-trimethoxyphenylamino)pyrimidin-4-ylamino)phenyl)thiopehene-3-sulfonamide], the half-maximal inhibitory concentration (IC50) is 100 to 1000 nM with Jurkat cells and 1000 to 10000 nM on ZAP-70.

In the case of `COc1cc(Nc2ncc(F)c(Nc3ccc(C)c(C)c3NS(C)(=O)=O)n2)cc(OC)c1OC` [Example 165, N-(6-(5-fluoro-2-(3,4,5-trimethoxyphenylamino)pyrimidin-4-ylamino)-2,3-dimethylphenyl)methanesulfonamide], the IC50 in the experiment with Jurkat cells and on ZAP-70 was 100 to 1000 nM throughout.

Take `CS(=O)(=O)Nc1ccccc1Nc1nc(Nc2cccc(OCCO)c2)ncc1Cl` [Example 123, N-(2-(5-chloro-2-(3-(2-hydroxyethoxy)phenylamino)pyrimidin-4-ylamino)phenyl)methanesulfonamide]: the half-maximal inhibitory concentration (IC50) in the experiment on Jurkat cells and at ZAP-70 was < 100 nM in each case.

With `Cc1cc(C)cc(Nc2ncc(F)c(Nc3ccccc3NS(C)(=O)=O)n2)c1` [Example 3, N-(2-(2-(3,5-dimethylphenylamino)-5-fluoropyrimidin-4-ylamino)phenyl)methanesulfonamide], the IC50 in the experiment with Jurkat cells and at ZAP-70 was 100 to 1000 nM each time.

`CS(=O)(=O)Nc1ccccc1Nc1nc(Nc2ccc(N3CCCCC3)cc2)ncc1Br` [Example 215, N-(2-(5-bromo-2-(4-(piperidin-1-yl)phenylamino)pyrimidin-4-ylamino)phenyl)methanesulfonamide]: the concentration for half-maximal inhibition (IC50) in the experiment on Jurkat cells and at ZAP-70 was 100 to 1000 nM throughout.

For the molecule `CNCCS(=O)(=O)Nc1ccccc1Nc1nc(Nc2cc(OC)c(OC)c(OC)c2)ncc1F` [Example 62, N-(2-(5-fluoro-2-(3,4,5-trimethoxyphenylamino)pyrimidin-4-ylamino)phenyl)-2-(methylamino)ethanesulfonamide], the half-inhibitory concentration (IC50) with Jurkat cells fell in the range of 100 to 1000 nM; on ZAP-70, 1000 to 10000 nM.

As to `Cc1nc2cc(Nc3ncc(F)c(Nc4ccccc4NS(C)(=O)=O)n3)ccc2s1` [Example 18, N-(2-(5-fluoro-2-(2-methylbenzo[d]thiazol-5-ylamino)pyrimidin-4-ylamino)phenyl)methanesulfonamide], the values for the IC50 with Jurkat cells and on ZAP-70 were 100 to 1000 nM and 1000 to 10000 nM, respectively.

`COc1cc(Nc2ncc(C)c(Nc3ccccc3NS(C)(=O)=O)n2)cc(OC)c1OC` [Example 66, N-(2-(5-methyl-2-(3,4,5-trimethoxyphenylamino)pyrimidin-4-ylamino)phenyl)methanesulfonamide]: the IC50 with Jurkat cells and at ZAP-70 was 100 to 1000 nM in each case.

Consider `CCN(c1ccccc1Nc1nc(Nc2ccc(OCCN3CCCCC3)cc2)ncc1F)S(C)(=O)=O` [Example 158, N-ethyl-N-(2-(5-fluoro-2-(4-(2-(piperidin-1-yl)ethoxy)phenylamino)pyrimidin-4-ylamino)phenyl)methanesulfonamide], for which the IC50 is < 100 nM with Jurkat cells and 100 to 1000 nM on ZAP-70.

As to `CN1C(=O)COc2cc(Nc3ncc(F)c(Nc4ccccc4NS(C)(=O)=O)n3)ccc21` [Example 25, N-(2-(5-fluoro-2-(4-methyl-3-oxo-3,4-dihydro-2H-benzo[b][1,4]oxazin-7-ylamino)pyrimidin-4-ylamino)phenyl)methanesulfonamide], the IC50 in the experiment on Jurkat cells and at ZAP-70 was 100 to 1000 nM in each case.

Consider `CS(=O)(=O)Nc1ccccc1Nc1nc(Nc2ccc(OCCN3CCCC3)cc2)ncc1F` [Example 96, N-(2-(5-fluoro-2-(4-(2-(pyrrolidin-1-yl)ethoxy)phenylamino)pyrimidin-4-ylamino)phenyl)methanesulfonamide], for which the concentration for half-maximal inhibition (IC50) with Jurkat cells and at ZAP-70 was 100 to 1000 nM each time.

Take `COc1cc(Nc2nccc(Nc3cccc(C)c3NS(C)(=O)=O)n2)cc(OCCN2CCCCC2)c1` [Example 177, N-(2-(2-(3-methoxy-5-(2-(piperidin-1-yl)ethoxy)phenylamino)pyrimidin-4-ylamino)-6-methylphenyl)methanesulfonamide formate salt]: the half-maximal inhibitory concentration (IC50) in the experiment with Jurkat cells and on ZAP-70 was 100 to 1000 nM throughout.

With `CS(=O)(=O)Nc1ccccc1Nc1nc(Nc2cccc(-n3cncn3)c2)ncc1F` [Example 21, N-(2-(2-(3-(1H-1,2,4-triazol-1-yl)phenylamino)-5-fluoropyrimidin-4-ylamino)phenyl)methanesulfonamide], the figures for the IC50 in the experiment with Jurkat cells and on ZAP-70 were 100 to 1000 nM and 1000 to 10000 nM, respectively.

Take `COc1cc(Nc2ncc(F)c(Nc3cccc(Cl)c3NS(C)(=O)=O)n2)cc(OC)c1OC` [Example 184, N-(2-chloro-6-(5-fluoro-2-(3,4,5-trimethoxyphenylamino)pyrimidin-4-ylamino)phenyl)methanesulfonamide]: the IC50 in the experiment on Jurkat cells and at ZAP-70 was 100 to 1000 nM throughout.

In the case of `COc1cc(Nc2ncc(Br)c(Nc3ccccc3NS(C)(=O)=O)n2)cc(OC)c1OC` [Example 70, N-(2-(5-bromo-2-(3,4,5-trimethoxyphenylamino)pyrimidin-4-ylamino)phenyl)methanesulfonamide], the 50% inhibitory concentration (IC50) is 100 to 1000 nM in the experiment with Jurkat cells and < 100 nM on ZAP-70.

`CCN(CC)C(=O)COc1cccc(Nc2ncc(Cl)c(Nc3ccccc3NS(C)(=O)=O)n2)c1` [Example 150, 2-(3-(5-chloro-4-(2-(methylsulfonamido)phenylamino)pyrimidin-2-ylamino)phenoxy)-N,N-diethylacetamide]: the IC50 in the experiment on Jurkat cells is < 100 nM; on ZAP-70 it was 100 to 1000 nM.

As to `CN1CCCCC1COc1cccc(Nc2ncc(F)c(Nc3ccccc3NS(C)(=O)=O)n2)c1` (stereo not shown) [Example 97, N-(2-(5-fluoro-2-(3-((1-methylpiperidin-2-yl)methoxy)phenylamino)pyrimidin-4-ylamino)phenyl)methanesulfonamide], the concentration for half-maximal inhibition (IC50) is < 100 nM in the experiment with Jurkat cells and 100 to 1000 nM at ZAP-70.

As to `CCOc1ccc(Nc2nc(Nc3cc(OC)c(OC)c(OC)c3)ncc2F)c(NS(C)(=O)=O)c1C` [Example 168, N-(3-ethoxy-6-(5-fluoro-2-(3,4,5-trimethoxyphenylamino)pyrimidin-4-ylamino)-2-methylphenyl)methanesulfonamide], the IC50 with Jurkat cells and at ZAP-70 was 100 to 1000 nM in each case.

Take `COc1ccc(Nc2nc(Nc3cc(OC)c(OC)c(OC)c3)ncc2Cl)c(NS(C)(=O)=O)c1` [Example 152, N-(2-(5-chloro-2-(3,4,5-trimethoxyphenylamino)pyrimidin-4-ylamino)-5-methoxyphenyl)methanesulfonamide]: the IC50 with Jurkat cells and at ZAP-70 was < 100 nM in each case.

`COc1cc(Nc2ncc(F)c(Nc3cccc(F)c3NS(C)(=O)=O)n2)cc(OC)c1OC` [Example 183, N-(2-fluoro-6-(5-fluoro-2-(3,4,5-trimethoxyphenylamino)pyrimidin-4-ylamino)phenyl)methanesulfonamide]: the concentration for half-maximal inhibition (IC50) in the experiment with Jurkat cells and at ZAP-70 was 100 to 1000 nM in each case.

For the molecule `COc1cc(Nc2ncc(F)c(Nc3ccc4c(c3NS(C)(=O)=O)OCCO4)n2)cc(OC)c1OC` [Example 167, N-(6-(5-fluoro-2-(3,4,5-trimethoxyphenylamino)pyrimidin-4-ylamino)-2,3-dihydrobenzo[b][1,4]dioxin-5-yl)methanesulfonamide], the half-maximal inhibitory concentration (IC50) with Jurkat cells and at ZAP-70 was < 100 nM each time.

In the case of `CS(=O)(=O)Nc1ccccc1Nc1nc(Nc2cccc(OCCCN3CCCCC3)c2)ncc1Cl` [Example 134], the 50% inhibitory concentration (IC50) in the experiment on Jurkat cells is 100 to 1000 nM; on ZAP-70, < 100 nM.
